This is an account of results in patent US9625446B2, “Method and quantification assay for determining c-kit/SCF/pAKT status” (Ventana Medical Systems, Inc., priority 2001, dated 2017).

The target of the assay is c-kit receptor (Homo sapiens, UniProt P10721). The following applies: MDA-MB-361 cells, SCF ligand present, three-day culture, STI-571 1 μM to 40 μM, 50 μg total protein lysate, FIG. 4.
Chain of c-kit receptor (P10721 26-976): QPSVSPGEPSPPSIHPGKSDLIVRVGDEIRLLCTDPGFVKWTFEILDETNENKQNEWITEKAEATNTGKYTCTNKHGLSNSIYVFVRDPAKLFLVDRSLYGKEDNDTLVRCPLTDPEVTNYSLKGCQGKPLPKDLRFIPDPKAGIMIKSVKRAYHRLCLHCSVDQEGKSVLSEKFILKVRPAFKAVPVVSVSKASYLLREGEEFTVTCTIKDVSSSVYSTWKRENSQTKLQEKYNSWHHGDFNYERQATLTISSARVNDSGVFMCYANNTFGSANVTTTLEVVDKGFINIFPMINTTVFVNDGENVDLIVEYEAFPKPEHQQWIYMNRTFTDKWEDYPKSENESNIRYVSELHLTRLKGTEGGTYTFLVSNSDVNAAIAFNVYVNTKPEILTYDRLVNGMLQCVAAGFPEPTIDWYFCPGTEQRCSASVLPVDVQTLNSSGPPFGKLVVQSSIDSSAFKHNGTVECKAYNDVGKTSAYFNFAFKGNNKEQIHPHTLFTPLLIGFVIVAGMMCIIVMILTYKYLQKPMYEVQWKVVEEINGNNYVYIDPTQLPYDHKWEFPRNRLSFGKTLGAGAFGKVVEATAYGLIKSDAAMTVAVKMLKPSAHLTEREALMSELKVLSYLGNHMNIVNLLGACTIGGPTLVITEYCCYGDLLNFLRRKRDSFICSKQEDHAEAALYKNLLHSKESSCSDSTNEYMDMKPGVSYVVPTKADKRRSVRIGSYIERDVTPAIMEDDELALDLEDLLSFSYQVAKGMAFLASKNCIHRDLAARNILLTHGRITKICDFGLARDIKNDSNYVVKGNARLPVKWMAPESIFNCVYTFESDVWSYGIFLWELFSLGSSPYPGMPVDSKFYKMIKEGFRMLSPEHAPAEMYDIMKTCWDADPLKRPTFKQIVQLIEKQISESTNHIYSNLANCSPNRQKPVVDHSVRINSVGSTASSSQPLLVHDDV

On to `Cc1ccc(NC(=O)c2ccc(CN3CCN(C)CC3)cc2)cc1Nc1nccc(-c2cccnc2)n1` [STI-571], for which the “STI-571 concentration at which SCF-induced c-kit activation is inhibited (no 145 kDa activated c-kit band)” value was no more than 1 µM.
